{"source": "paper PMC9415161", "about": "“PEG-Bottlebrush Stabilizer-Based Worm-like Nanocrystal Micelles with Long-Circulating and Controlled Release for Delivery of a BCR-ABL Inhibitor against Chronic Myeloid Leukemia (CML)” (Pharmaceutics, 2022)", "key": {"[1]": {"system": "K562 cells", "test": "In vitro cell toxicity assay (CCK8)", "format": "cell-based", "conditions": "Homo sapiens, K562, 72 h", "method": "The K562 cell line used in this work was ordered from the American Type Culture Collection (ATCC, Manassas, VA, USA). The K562 cells were cultured in RPMI 1640 with 10% fetal bovine serum (FBS) (VivaCell, Shanghai, China) and 1% penicillin/streptomycin in a humidified incubator at 37 °C with 5% CO2. Firstly, K562 cells were seeded into 96-well plates with 100 μL of 1640 medium containing 3000 cells per well, and were incubated at 37 °C under 5% CO2. Subsequently, the cells in each well were treated with a series of concentrations of free 053 in DMSO, 053-F127 NCs, and 053-PPP NC micelles, respectively. Cell viability was determined using the Cell Counting Kit-8 (CCK8) (Best Bio, Shanghai, China) based on the manufacturer’s instructions. Subsequently, 10 μL of CCK8 solution was added to each well, and the absorbance of each well at a wavelength of 450 nm was measured using a microplate reader (iMARK, Bio-Rad, Hercules, CA, USA) after further incubation for 1 h at 37 °C. The absorbance was normalized and plotted as a function of drug concentration. The GI50 values were calculated using GraphPad Prism 8.0 (San Diego, CA, USA)."}, "[2]": {"test": "In vivo pharmacokinetics after tail vein injection", "conditions": "male, Sprague-Dawley, rat, plasma, rats, IV 1 mg/kg, n = 3", "method": "The in vivo profiling of free 053, 053-F127 NCs, and 053-PPP NC micelles were evaluated and compared using PK tests in male Sprague Dawley rats with individual weights of ~200 g (from the Laboratory Animal Center of Anhui Medical University, Hefei, China), approved by the Animal Ethics Committee of Hefei Institutes of Physical Science, Chinese Academy of Sciences, Hefei, China (approval code: DW-2019-20). The rats were housed in an air-conditioned room at 23 ± 2 °C and humidity of ~50%. After acclimatizing the facilities for 1 week, the rats were randomly divided into three groups (three per group): free 053, 053-F127 NC, and 053-PPP NC micelle. The rats were fasted for 12 h prior to drug administration. Free 053 (dissolved in 10% v/v DMSO in glucose 5%), 053-F127 NC, and 053-PPP NC micelle suspensions were administrated by tail vein injection at a dose of 1 mg/kg. Blood samples were collected in heparinized tubes at 2, 5, 15, 30 min and 1, 2, 4, 6, 9, 12, and 24 h (for all three groups). For the 053-PPP NC micelle group, blood was sampled at another three time points of 72, 96, and 120 h. The collected fresh blood samples were immediately processed in accordance with the following protocol: (1) collection of 100 μL of plasma by centrifuging the blood samples for 3 min at 6000 rpm and 4 °C, followed by storage at –80 °C for further analysis; (2) 20 μL of 200 ng/mL of caffeine (as an internal standard solution) was added to 100 μL of each plasma sample; (3) 400 μL of methanol was applied, vortexed for 5 min, and centrifuged at 14,000 rpm for 10 min; (4) the collected supernatants were quantified via LC-MS/MS analysis by loading 5 μL of supernatant. The collected data were analyzed by the non-compartment model using WinNonlin 8.1 software (Pharsight Corporation, Mountain View, CA, USA) to elucidate the PK parameters."}, "[3]": {"system": "K562 xenograft", "test": "In vivo anticancer efficacy in K562 xenograft mouse model", "set-up": "species or system Bal B/c nude mice", "conditions": "40 mg/kg QD, PO, n = 5", "method": "Female Bal B/c nude mice were used to establish K562 xenograft mouse models according to the protocol described above. When the tumors reached 150–200 mm^3, the mice were randomly divided into seven groups (n = 5) for the evaluation of antitumor efficacy in vivo at 40 mg/kg: Vehicle, free 053 QD (Once a day, PO), 053-F127 NC QD (IV), 053-F127 NC Q2D (Once every other day, IV), 053-PPP NC QD (IV), 053-PPP NC Q2D (IV), and 053-PPP NC Q4D (once every 4 days, IV). During the treatment, body weight and tumor growth were measured daily. Tumor volumes (V) were calculated as follows (Equation (3)):V (mm^3) = [(W^2 × L)/2],(3) where width (W) and length (L) are defined as the lower and higher of two measurements, respectively. When the tumors of the vehicle group reached the limit of the animal ethical regulations, the test was stopped. All the mice were euthanized, and major tissues/organs were harvested for immunohistochemical (IHC) analysis, including HE, Ki-67, and TUNEL staining."}, "[4]": {"system": "K562 cells", "set-up": "method as in PMID 26789553", "conditions": "against K562 cells; cited from earlier work"}, "[5]": {"set-up": "method as in PMID 26789553", "conditions": "cited from earlier work"}, "[6]": {"set-up": "method as in PMID 26789553", "conditions": "50 mg/kg, P.O.; cited from earlier work"}}, "note": "Like-named read-outs stand apart in the source and are kept apart here.", "data": [{"smiles": "CNc1ncncc1C(=O)Nc1cc(NC(=O)c2cccc(C(F)(F)F)c2)ccc1C", "note": "[Free 053, N-(2-methyl-5-(3-(trifluoromethyl)benzamido)phenyl)-4-(methylamino)pyrimidine-5-carboxamide]", "values": [{"measurement": "GI50", "setting": "[1]", "result": "5.95 ± 1.95", "unit": "nM"}, {"measurement": "AUC(0-inf)", "setting": "[2]", "result": "509 ± 132", "unit": "ng·h/mL"}, {"measurement": "AUC(0-t)", "setting": "[2]", "result": "499 ± 132", "unit": "ng·h/mL"}, {"measurement": "C0", "setting": "[2]", "result": "555 ± 142", "unit": "ng/mL"}, {"measurement": "Cmax", "setting": "[2]", "result": "364 ± 42", "unit": "ng/mL"}, {"measurement": "Tmax", "setting": "[2]", "result": 1.8, "unit": "min"}, {"measurement": "clearance", "setting": "[2]", "result": 34.3, "unit": "mL/min/kg"}, {"measurement": "half-life", "setting": "[2]", "result": "2.02 ± 0.42", "unit": "h"}, {"measurement": "MRT last", "setting": "[2]; read-out: MRT0–t", "result": "2.54 ± 0.55", "unit": "h"}, {"measurement": "MRT inf", "setting": "[2]; read-out: MRT0–∞", "result": "2.78 ± 0.57", "unit": "h"}, {"measurement": "Vd", "setting": "[2]; read-out: Vz", "result": "5.87 ± 1.33", "unit": "L/kg"}, {"measurement": "tumor inhibition efficacy compared with the vehicle group", "setting": "[3]", "result": "did not show a significant difference"}, {"measurement": "GI50", "setting": "[4]", "result": "~14", "unit": "nM"}, {"measurement": "oral bioavailability", "setting": "[5]", "result": "~ 24%"}, {"measurement": "TGI", "setting": "[6]", "result": 48.3, "unit": "%"}]}]}
